In patent US20140350111A1, “METHODS FOR TREATMENT AND PROPHYLAXIS AGAINST HEMORRHOIDS” (priority 2011, published 2014):
Like-named read-outs stand apart in the source and are kept apart here.

How the values were obtained:
[1] = one individual; 220 mg every day
[2] = three individuals; 660 mg at first noticeable symptom, then 440 mg three times daily at six-hour intervals
Method: After completing treatment in Example 1, three of the individuals at risk for hemorrhoids were treated at the onset of hemorrhoid symptoms to determine whether naproxen could halt or reverse the progression of the hemorrhoid symptoms.

For `COc1ccc2cc([C@H](C)C(=O)O)ccc2c1` [naproxen sodium], the “occurrence of emerging hemorrhoid symptoms under prophylaxis” value [1] was “has not experienced any emerging hemorrhoid symptoms”, the “hemorrhoid symptoms after treatment, as reported by individuals” value (440 mg three times daily at six-hour intervals, the one remaining individual) was “significant improvement in symptoms” and the “hemorrhoid symptoms after treatment, as reported by individuals” value (five individuals, 440 mg three times daily at six-hour intervals until symptoms abated, all treated individuals except one) was “complete lack of hemorrhoid symptoms after treatment”. For the same molecule, the “progression of emerging hemorrhoid symptoms” value [2] was “symptoms did not worsen” and the “time to complete disappearance of all symptoms of hemorrhoids from commencement of treatment” value [2] was 12 to 24 h.
